What was measured:
Assay type in all cases: biochemical
NDM-1 = target: T1, NDM-1 (Klebsiella pneumoniae, UniProt C7C422); experiment: β-lactamase inhibition, imipenem hydrolysis; conditions: imipenem substrate; read-out: β-Lactamases, IC50 NDM-1
T1 construct: purchased RayBiotech, Inc. 230-00554
Source text: (§1) Recombinant AmpC from Escherichia coli was produced according to a previously reported protocol. KPC-2 and NDM-1 […] were purchased from LifeSpan Biosciences, Inc. (Lynnwood, WA, USA) (LS-G26598) and RayBiotech, Inc. (Peachtree Corners, GA, USA) (230-00554), respectively. Genes encoding OXA-48 (residues 23–265) and VIM-2 (residues 27–266) were custom-synthesized (Bioneer Inc., Seoul, Republic of Korea) and expressed as previously described. The β-lactamase inhibitory activity of the title compounds was then determined according to the previously reported methods. Briefly, equal volumes (100 μL) of the title compounds (70–0.1 μM in PBS) and diluted enzyme stock were mixed (final concentration 2% of DMSO in 200 μL) in 96-well plates, which were then incubated at 37 °C for 20 min. The incubated mixture was added to each well containing substrates (nitrocefin for AmpC, KPC-2, OXA-48, and VIM-2; and imipenem for NDM-1) of final concentrations of 70 μM for nitrocefin and 100 μM for imipenem. Substrate hydrolysis was monitored at 486 nm (nitrocefin) or 300 nm (imipenem) for 15 min, using a Cytation 5 imaging multimode reader (BioTek Instruments Inc., Winooski, VT, USA). At the plateau level of hydrolysis, the corresponding rates of hydrolysis were compared to those obtained without inhibitors (100%) to determine the percentage of enzyme inhibition at each concentration of the title compounds. The IC50 values of the compounds were derived from sigmoidal dose–response curves, using GraphPad Prism 5 (GraphPad Software, Boston, MA, USA).

VIM-2 = target: T2, VIM-2 (Escherichia coli, UniProt Q5U7L7); experiment: β-lactamase inhibition, nitrocefin hydrolysis; conditions: nitrocefin substrate; read-out: β-Lactamases, IC50 VIM-2
T2 construct: Genes encoding OXA-48 (residues 23–265) and VIM-2 (residues 27–266) were custom-synthesized; made in house
Source text: as §1

AmpC = target: T3, AmpC (Escherichia coli, UniProt P00811); experiment: β-lactamase inhibition, nitrocefin hydrolysis
T3 construct: made in house
Source text: as §1

KPC-2 = target: T4, KPC-2 (Klebsiella pneumoniae, UniProt Q9F663); experiment: β-lactamase inhibition, nitrocefin hydrolysis; conditions: nitrocefin substrate; read-out: β-Lactamases, IC50 KPC-2
T4 construct: purchased LifeSpan Biosciences, Inc. LS-G26598
Source text: as §1

OXA-48 = target: T5, OXA-48 (Klebsiella pneumoniae, UniProt Q6XEC0); experiment: β-lactamase inhibition, nitrocefin hydrolysis; conditions: nitrocefin substrate; read-out: β-Lactamases, IC50 OXA-48
T5 construct: Genes encoding OXA-48 (residues 23–265) and VIM-2 (residues 27–266) were custom-synthesized; made in house
Source text: as §1

T5 sequence (Q6XEC0 23-265 limits assumed): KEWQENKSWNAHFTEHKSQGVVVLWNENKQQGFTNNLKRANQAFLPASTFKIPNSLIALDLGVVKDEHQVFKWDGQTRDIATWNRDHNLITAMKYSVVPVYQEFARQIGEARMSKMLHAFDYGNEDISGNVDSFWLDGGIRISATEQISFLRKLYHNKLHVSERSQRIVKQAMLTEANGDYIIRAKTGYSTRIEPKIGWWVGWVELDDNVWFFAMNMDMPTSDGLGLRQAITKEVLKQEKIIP
T1 sequence (C7C422 29-270, looked up, species assumed): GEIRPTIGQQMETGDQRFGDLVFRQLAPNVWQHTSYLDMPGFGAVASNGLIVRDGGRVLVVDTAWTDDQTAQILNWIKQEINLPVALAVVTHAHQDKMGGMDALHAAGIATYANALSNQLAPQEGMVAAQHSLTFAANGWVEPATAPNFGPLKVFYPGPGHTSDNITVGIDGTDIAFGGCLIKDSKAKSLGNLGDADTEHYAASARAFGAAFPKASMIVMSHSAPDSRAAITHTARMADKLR
T4 sequence (Q9F663 25-293, looked up): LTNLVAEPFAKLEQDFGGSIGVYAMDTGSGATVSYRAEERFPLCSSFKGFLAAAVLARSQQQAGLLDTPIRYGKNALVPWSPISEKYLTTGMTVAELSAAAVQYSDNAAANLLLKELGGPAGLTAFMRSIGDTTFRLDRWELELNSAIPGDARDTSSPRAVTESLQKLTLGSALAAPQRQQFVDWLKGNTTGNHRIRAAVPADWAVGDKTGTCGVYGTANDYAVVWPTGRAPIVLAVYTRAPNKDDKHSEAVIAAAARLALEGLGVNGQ
T3 sequence (P00811 20-377): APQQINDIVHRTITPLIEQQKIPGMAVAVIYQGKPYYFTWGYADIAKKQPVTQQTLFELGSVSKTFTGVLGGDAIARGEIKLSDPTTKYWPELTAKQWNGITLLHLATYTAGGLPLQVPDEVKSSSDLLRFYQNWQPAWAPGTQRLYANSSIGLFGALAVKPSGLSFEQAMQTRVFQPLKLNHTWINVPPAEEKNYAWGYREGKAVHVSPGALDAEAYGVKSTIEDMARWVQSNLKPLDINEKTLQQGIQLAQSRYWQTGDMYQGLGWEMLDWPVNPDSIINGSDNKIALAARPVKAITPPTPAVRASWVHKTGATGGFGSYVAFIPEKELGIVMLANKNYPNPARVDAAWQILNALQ

Question: Which results are given for O=c1c(OCCN2CCOCC2)c(-c2ccc(F)c(F)c2)oc2cc(O)cc(O)c12 [Compound 20]?
Answer: IC50 (NDM-1): > 50 µM; IC50 (VIM-2): > 100 µM; IC50 (AmpC): > 50 µM; IC50 (KPC-2): > 50 µM; IC50 (OXA-48): > 100 µM

Question: CN1CCCC1CCOc1c(-c2ccc(F)c(F)c2)oc2cc(O)cc(O)c2c1=O (stereo not drawn) [Compound 21] was tested. Which IC50 (NDM-1) did it give?
Answer: > 50 µM

Question: What about the IC50 (VIM-2) of the same compound?
Answer: > 100 µM

Question: What about the IC50 (AmpC) of the same compound?
Answer: > 50 µM

Question: And the IC50 (KPC-2)?
Answer: > 50 µM

Question: What about the IC50 (OXA-48) of the same compound?
Answer: > 100 µM

Question: Which IC50 (NDM-1) does the source give for O=c1c(OCCC(F)(F)F)c(-c2ccc(F)c(F)c2)oc2cc(O)cc(O)c12 [Compound 22] here?
Answer: > 50 µM

Question: And the IC50 (VIM-2)?
Answer: > 100 µM

Question: And the IC50 (AmpC)?
Answer: > 50 µM

Question: What about the IC50 (KPC-2) of the same compound?
Answer: > 50 µM

Question: And the IC50 (OXA-48)?
Answer: 39.8 µM

Question: For CC(C)CCOc1c(-c2ccc(F)c(F)c2)oc2cc(O)cc(O)c2c1=O [Compound 24], which IC50 (NDM-1) is on record?
Answer: > 50 µM

Question: And the IC50 (VIM-2)?
Answer: 42.1 µM

Question: And the IC50 (AmpC)?
Answer: > 50 µM

Question: What about the IC50 (KPC-2) of the same compound?
Answer: 39.4 µM

Question: What about the IC50 (OXA-48) of the same compound?
Answer: 19.1 µM

Question: What does the source list for O=c1c(OCCC2CC2)c(-c2ccc(F)c(F)c2)oc2cc(O)cc(O)c12 [Compound 25]?
Answer: IC50 (NDM-1): 22.7 µM; IC50 (VIM-2): 13.9 µM; IC50 (AmpC): > 50 µM; IC50 (KPC-2): 22.8 µM; IC50 (OXA-48): 11.4 µM

Question: With O=c1c(OCC2CCCC2)c(-c2ccc(F)c(F)c2)oc2cc(O)cc(O)c12 [Compound 28] as the compound, how does the IC50 (NDM-1) read?
Answer: 21.8 µM

Question: And the IC50 (VIM-2)?
Answer: 7.8 µM

Question: And the IC50 (AmpC)?
Answer: > 50 µM

Question: What about the IC50 (KPC-2) of the same compound?
Answer: 40.8 µM

Question: And the IC50 (OXA-48)?
Answer: 9.2 µM

Question: Which results are given for O=c1c(OCCCC2CCCC2)c(-c2ccc(F)c(F)c2)oc2cc(O)cc(O)c12 [Compound 29]?
Answer: IC50 (NDM-1): 26.7 µM; IC50 (VIM-2): 5.1 µM; IC50 (AmpC): > 50 µM; IC50 (KPC-2): 28.3 µM; IC50 (OXA-48): 5.5 µM

Question: How did the IC50 (NDM-1) turn out when O=c1c(OCCC2CCOCC2)c(-c2ccc(F)c(F)c2)oc2cc(O)cc(O)c12 [Compound 30] was run?
Answer: > 50 µM

Question: And the IC50 (VIM-2)?
Answer: > 100 µM

Question: What about the IC50 (AmpC) of the same compound?
Answer: > 50 µM

Question: What about the IC50 (KPC-2) of the same compound?
Answer: > 50 µM

Question: And the IC50 (OXA-48)?
Answer: 35.9 µM

Question: What does the source list for O=c1c(OCCC2CCNCC2)c(-c2ccc(F)c(F)c2)oc2cc(O)cc(O)c12 [Compound 31]?
Answer: IC50 (NDM-1): > 50 µM; IC50 (VIM-2): > 100 µM; IC50 (AmpC): > 50 µM; IC50 (KPC-2): > 50 µM; IC50 (OXA-48): > 100 µM

From publication PMC10892423 (Pharmaceutics, 2024)
